# Assay results taken from PMC10997755, “Discovery of a small-molecule inhibitor that traps Polθ on DNA and synergizes with PARP inhibitors” (Nature Communications, 2024).
# Where “and” joins values, the source holds several entries; their conditions need not be identical. Identical values can stand only once. Entries after “also recorded” stand apart in the source; their conditions may differ.
# Tests used:
# Format in all cases: biochemical
# [1] = molecular target: T1, recombinant human full-length Polθ (Fl-Polθ) (Homo sapiens, UniProt O75417); assay: Fl-Polθ DNA/DNA primer extension; settings: 0.15-12 µM, gel
# T1 construct: recombinant human full-length Polθ (Fl-Polθ); made in house
# T1 sequence (O75417 whole entry): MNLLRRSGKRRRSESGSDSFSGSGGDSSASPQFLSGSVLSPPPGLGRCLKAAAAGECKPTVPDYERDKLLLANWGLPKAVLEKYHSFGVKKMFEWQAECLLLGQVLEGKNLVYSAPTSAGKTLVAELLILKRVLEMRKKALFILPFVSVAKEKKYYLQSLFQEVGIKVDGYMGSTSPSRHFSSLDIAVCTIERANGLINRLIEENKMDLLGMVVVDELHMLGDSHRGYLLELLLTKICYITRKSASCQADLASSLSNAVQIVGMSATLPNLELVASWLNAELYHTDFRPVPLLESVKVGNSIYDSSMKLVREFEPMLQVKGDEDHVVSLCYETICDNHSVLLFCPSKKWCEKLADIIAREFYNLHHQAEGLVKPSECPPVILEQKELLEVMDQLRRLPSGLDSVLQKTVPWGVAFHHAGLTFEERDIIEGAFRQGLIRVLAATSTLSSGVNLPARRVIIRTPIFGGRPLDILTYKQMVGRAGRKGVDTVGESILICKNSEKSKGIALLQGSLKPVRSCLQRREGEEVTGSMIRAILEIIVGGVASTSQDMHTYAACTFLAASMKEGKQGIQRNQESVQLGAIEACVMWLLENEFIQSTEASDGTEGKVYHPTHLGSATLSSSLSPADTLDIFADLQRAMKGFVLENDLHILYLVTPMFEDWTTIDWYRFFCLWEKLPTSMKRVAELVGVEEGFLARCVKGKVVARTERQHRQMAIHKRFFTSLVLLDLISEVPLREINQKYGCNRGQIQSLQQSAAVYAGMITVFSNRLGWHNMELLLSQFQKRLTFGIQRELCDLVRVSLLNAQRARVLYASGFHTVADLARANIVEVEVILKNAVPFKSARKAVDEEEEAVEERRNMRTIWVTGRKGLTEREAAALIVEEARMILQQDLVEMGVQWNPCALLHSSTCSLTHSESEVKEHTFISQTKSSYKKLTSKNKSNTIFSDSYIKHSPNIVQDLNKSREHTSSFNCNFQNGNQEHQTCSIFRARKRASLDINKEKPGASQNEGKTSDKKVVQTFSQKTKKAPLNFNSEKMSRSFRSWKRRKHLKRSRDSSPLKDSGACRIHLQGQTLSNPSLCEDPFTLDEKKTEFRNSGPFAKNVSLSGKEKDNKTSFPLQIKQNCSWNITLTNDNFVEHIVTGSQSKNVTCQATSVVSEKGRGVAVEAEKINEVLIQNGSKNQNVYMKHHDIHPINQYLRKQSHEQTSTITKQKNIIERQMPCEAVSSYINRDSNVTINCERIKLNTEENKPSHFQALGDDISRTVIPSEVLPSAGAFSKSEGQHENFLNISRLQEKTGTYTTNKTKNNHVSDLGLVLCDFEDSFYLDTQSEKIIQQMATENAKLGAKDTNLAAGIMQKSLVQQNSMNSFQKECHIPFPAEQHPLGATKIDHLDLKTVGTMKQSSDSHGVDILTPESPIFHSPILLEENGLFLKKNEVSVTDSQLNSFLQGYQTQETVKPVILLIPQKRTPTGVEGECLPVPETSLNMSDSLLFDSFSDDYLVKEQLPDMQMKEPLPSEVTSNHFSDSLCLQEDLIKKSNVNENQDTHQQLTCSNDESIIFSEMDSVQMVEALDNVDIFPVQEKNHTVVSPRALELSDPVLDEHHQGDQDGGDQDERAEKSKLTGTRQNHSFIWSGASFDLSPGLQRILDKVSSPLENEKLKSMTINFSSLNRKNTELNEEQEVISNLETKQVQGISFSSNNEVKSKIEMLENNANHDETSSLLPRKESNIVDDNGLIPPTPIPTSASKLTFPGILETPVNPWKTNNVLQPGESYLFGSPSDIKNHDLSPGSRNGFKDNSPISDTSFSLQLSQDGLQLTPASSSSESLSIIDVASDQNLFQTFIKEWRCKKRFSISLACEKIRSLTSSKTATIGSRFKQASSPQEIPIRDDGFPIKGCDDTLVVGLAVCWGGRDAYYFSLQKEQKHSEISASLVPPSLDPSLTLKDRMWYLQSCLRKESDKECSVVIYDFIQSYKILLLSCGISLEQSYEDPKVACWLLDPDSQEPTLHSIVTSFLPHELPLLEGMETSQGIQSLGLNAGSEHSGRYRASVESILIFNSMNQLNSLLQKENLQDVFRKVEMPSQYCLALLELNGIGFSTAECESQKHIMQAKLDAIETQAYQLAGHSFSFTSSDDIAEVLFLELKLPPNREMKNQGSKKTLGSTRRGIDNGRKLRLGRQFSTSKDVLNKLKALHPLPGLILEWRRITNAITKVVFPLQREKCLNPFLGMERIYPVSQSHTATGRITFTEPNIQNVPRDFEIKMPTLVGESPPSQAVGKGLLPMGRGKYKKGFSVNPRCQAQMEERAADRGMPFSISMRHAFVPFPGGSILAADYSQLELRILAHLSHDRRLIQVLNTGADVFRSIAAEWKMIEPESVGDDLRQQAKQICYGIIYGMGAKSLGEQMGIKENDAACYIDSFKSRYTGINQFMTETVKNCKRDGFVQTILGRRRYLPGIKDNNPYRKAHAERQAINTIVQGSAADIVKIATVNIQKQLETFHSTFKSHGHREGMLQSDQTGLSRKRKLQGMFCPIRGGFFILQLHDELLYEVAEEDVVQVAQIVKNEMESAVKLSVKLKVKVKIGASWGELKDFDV
# Fl-Polθ:DNA/DNA complex = molecular target: T2, Fl-Polθ:DNA/DNA complex (Homo sapiens, UniProt O75417); assay: EcoRI endonuclease protection assay;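 as to i+1 (%) (15 nt), replicates #1-#3: i+1 is one-nucleotide extended DNA within post-catalytic complexes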
# T2 construct: recombinant human full-length Polθ (Fl-Polθ); made in house
# T2 sequence (O75417 whole entry, one chain of several): as the sequence (O75417 whole entry) above
# Procedure: (§1) EcoRI and KpnI endonucleases assay: 25 nM 5’-^32P radiolabeled primer-template DNA Sc15-EcoRI (5’-^32P LM3-EcoRI/LM4-EcoRI) or Sc19-KpnI (5’-^32P LM11-Kpn/LM12-Kpn) in reaction buffer (25 mM Tris-HCl pH 7.5, 10 mM MgCl2, 10% glycerol, 0.1 mg/mL BSA, 0,01% igepal, 1 mM DTT) were incubated in the presence or in the absence of 50 nM Polθ-pol, 100 μM ddCTP, and 10 μM inhibitors, as indicated, for 5 min at room temperature. Next, 0.08 U/μL EcoRI or KpnI together with 500 nM “trapping” DNA Sc14 (RP559/RP702) were added and incubated for further 0–40 min at 30 °C as indicated. 10 nM PolθΔcen and FL-Polθ and 25 nM Sc15-EcoRI and Sc19-Kpn were probed with 0.04 U/μL EcoRI or KpnI (both from New England Biolabs) using the same conditions. Reactions were stopped by addition of formamide loading buffer with 50 mM EDTA, resolved in denaturing 20% urea PAAG and analyzed using Typhoon PhosphorImager (GE Amersham). Quantification was done in ImageQuant TL software. All quantified experiments were performed in triplicates and plotted as mean with ± s.d using GraphPad Prism 9 software.
# PolθΔcen:DNA/DNA complex = assay: EcoRI endonuclease protection assay; settings: for i (%), normalized to 100%, ave(%) / i (%), replicates: 14 nt i; for i+1 (%) normalized to 100%, ave(%) / i+1 (%), replicates: 15 nt i+1;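 as to i (%), replicates: i is primer-template DNA within pre-catalytic complexes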;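 as to i+1 (%), replicates: i+1 is one-nucleotide extended DNA within post-catalytic complexes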
# Procedure: as §1
# Polγ = molecular target: T3, Polγ (Homo sapiens, UniProt P54098); assay: Primer extension by recombinant Pols (selectivity)
# T3 construct: gift: Dr. Copeland (NIEHS)
# T3 sequence (P54098 1-1239): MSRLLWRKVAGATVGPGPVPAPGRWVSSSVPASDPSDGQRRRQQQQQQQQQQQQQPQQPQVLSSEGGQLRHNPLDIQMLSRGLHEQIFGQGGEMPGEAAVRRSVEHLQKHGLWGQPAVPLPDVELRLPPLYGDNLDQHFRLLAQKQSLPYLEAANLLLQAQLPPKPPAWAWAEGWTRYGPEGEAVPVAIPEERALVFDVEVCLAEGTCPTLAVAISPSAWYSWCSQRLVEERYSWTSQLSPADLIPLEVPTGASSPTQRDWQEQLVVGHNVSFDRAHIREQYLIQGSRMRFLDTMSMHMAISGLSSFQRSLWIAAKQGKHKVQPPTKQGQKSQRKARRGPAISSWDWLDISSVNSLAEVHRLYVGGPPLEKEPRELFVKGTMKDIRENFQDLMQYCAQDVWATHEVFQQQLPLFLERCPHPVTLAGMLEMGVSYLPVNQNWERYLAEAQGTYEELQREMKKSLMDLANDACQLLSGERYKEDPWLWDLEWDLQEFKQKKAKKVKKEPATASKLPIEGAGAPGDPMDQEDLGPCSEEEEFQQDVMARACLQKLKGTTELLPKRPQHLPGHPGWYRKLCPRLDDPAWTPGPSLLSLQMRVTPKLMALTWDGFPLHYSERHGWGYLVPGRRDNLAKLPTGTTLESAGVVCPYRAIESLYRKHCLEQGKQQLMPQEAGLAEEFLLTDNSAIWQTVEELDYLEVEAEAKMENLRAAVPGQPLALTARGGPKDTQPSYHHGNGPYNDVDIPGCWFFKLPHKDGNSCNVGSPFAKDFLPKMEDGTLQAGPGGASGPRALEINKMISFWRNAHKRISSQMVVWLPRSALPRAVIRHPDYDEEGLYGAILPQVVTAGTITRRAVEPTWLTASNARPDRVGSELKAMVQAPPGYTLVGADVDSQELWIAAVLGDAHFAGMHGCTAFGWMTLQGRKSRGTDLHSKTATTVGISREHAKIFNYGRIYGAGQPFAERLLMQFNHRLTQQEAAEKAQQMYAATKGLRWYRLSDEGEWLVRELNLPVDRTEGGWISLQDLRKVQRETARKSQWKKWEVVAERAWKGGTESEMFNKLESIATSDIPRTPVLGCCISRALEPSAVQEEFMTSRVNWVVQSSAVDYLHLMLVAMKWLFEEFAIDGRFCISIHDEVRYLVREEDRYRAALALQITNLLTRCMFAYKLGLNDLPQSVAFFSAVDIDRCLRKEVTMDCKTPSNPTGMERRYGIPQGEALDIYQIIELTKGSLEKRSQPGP
# [2] = Eco+PolqDcen+ddC+RTx152, 2.5min
structure (smiles),measurement,setting,value
CN(C(=O)Oc1ccc(C(F)(F)F)cc1C(F)(F)F)c1ccc(F)cc1 [MC160385],inhibition of Fl-Polθ DNA synthesis activity,[1],inhibits; also recorded: inhibition
CN1CCN(c2cc(C(F)(F)F)cc(C(F)(F)F)c2OC(=O)N(C)c2ccc(F)cc2)C1=O [RTx-152],"EcoRI cleavage %, ave","Fl-Polθ:DNA/DNA complex; Eco+FL+ddC+RTx152, 2.5min",15.4%
same,"EcoRI cleavage %, replicates #1-#3","Fl-Polθ:DNA/DNA complex; Eco+FL+ddC+RTx152, 2.5min",16.1% and 15.5% and 14.7%
same,"EcoRI cleavage %, ave","Fl-Polθ:DNA/DNA complex; Eco+FL+ddC+RTx152, 5min",27.7%
same,"EcoRI cleavage %, replicates #1-#3","Fl-Polθ:DNA/DNA complex; Eco+FL+ddC+RTx152, 5min",28.7% and 27.4% and 27.0%
same,"EcoRI cleavage %, ave","Fl-Polθ:DNA/DNA complex; Eco+FL+ddC+RTx152, 10min",38.7%
same,"EcoRI cleavage %, replicates #1-#3","Fl-Polθ:DNA/DNA complex; Eco+FL+ddC+RTx152, 10min",39.6% and 39.0% and 37.5%
same,"i (%) (14 nt), replicates #1-#3","Fl-Polθ:DNA/DNA complex; FL+ddC+152, 2.5min",45.9% and 45.3% and 45.1%
same,"i (%), normalized to 100%, ave(%)","Fl-Polθ:DNA/DNA complex; FL+ddC+152, 2.5min",100.0%
same,"i+1 (%) (15 nt), replicates #1-#3","Fl-Polθ:DNA/DNA complex; FL+ddC+152, 2.5min",24.5% and 25.2% and 24.4%
same,"i+1 (%) normalized to 100%, ave(%)","Fl-Polθ:DNA/DNA complex; FL+ddC+152, 2.5min",100.0%
same,"i (%) (14 nt), replicates #1-#3","Fl-Polθ:DNA/DNA complex; FL+ddC+152, 5min",32.7% and 32.3% and 32.8%
same,"i (%), normalized to 100%, ave(%)","Fl-Polθ:DNA/DNA complex; FL+ddC+152, 5min",71.7%
same,"i+1 (%) (15 nt), replicates #1-#3","Fl-Polθ:DNA/DNA complex; FL+ddC+152, 5min",24.7% and 27.0% and 24.6%
same,"i+1 (%) normalized to 100%, ave(%)","Fl-Polθ:DNA/DNA complex; FL+ddC+152, 5min",103.0%
same,"i (%) (14 nt), replicates #1-#3","Fl-Polθ:DNA/DNA complex; FL+ddC+152, 10min",19.6% and 20.0% and 17.7%
same,"i (%), normalized to 100%, ave(%)","Fl-Polθ:DNA/DNA complex; FL+ddC+152, 10min",42.0%
same,"i+1 (%) (15 nt), replicates #1-#3","Fl-Polθ:DNA/DNA complex; FL+ddC+152, 10min",27.5% and 27.2% and 25.6%
same,"i+1 (%) normalized to 100%, ave(%)","Fl-Polθ:DNA/DNA complex; FL+ddC+152, 10min",108.3%
same,"post-catalytic complexes (i + 1), EcoRI cleavage",Fl-Polθ:DNA/DNA complex; Fl-Polθ,fully resistant to EcoRI cleavage
same,"EcoRI cleavage %, ave",PolθΔcen:DNA/DNA complex; [2],9.7%
same,"EcoRI cleavage %, replicates",PolθΔcen:DNA/DNA complex; [2],11.0% and 8.0% and 10.0%
same,"EcoRI cleavage %, ave","PolθΔcen:DNA/DNA complex; Eco+PolqDcen+ddC+RTx152, 5min",14.0%
same,"EcoRI cleavage %, replicates","PolθΔcen:DNA/DNA complex; Eco+PolqDcen+ddC+RTx152, 5min",17.0% and 12.0% and 13.0%
same,"EcoRI cleavage %, ave","PolθΔcen:DNA/DNA complex; Eco+PolqDcen+ddC+RTx152, 10min",16.7%
same,"EcoRI cleavage %, replicates","PolθΔcen:DNA/DNA complex; Eco+PolqDcen+ddC+RTx152, 10min",21.0% and 14.0% and 15.0%
same,"i (%), normalized to 100%, ave(%)","PolθΔcen:DNA/DNA complex; PolqDcen+ddC+152, 2.5 min",100.0%
same,"i (%), replicates","PolθΔcen:DNA/DNA complex; PolqDcen+ddC+152, 2.5 min",50.3% and 44.4% and 42.8%
same,"i+1 (%) normalized to 100%, ave(%)","PolθΔcen:DNA/DNA complex; PolqDcen+ddC+152, 2.5 min",100.0%
same,"i+1 (%), replicates","PolθΔcen:DNA/DNA complex; PolqDcen+ddC+152, 2.5 min",20.4% and 24.4% and 22.1%
same,"i (%), normalized to 100%, ave(%)","PolθΔcen:DNA/DNA complex; PolqDcen+ddC+152, 5 min",86.1%
same,"i (%), replicates","PolθΔcen:DNA/DNA complex; PolqDcen+ddC+152, 5 min",40.2% and 38.5% and 39.7%
same,"i+1 (%) normalized to 100%, ave(%)","PolθΔcen:DNA/DNA complex; PolqDcen+ddC+152, 5 min",111.1%
same,"i+1 (%), replicates","PolθΔcen:DNA/DNA complex; PolqDcen+ddC+152, 5 min",23.8% (2×) and 26.6%
same,"i (%), normalized to 100%, ave(%)","PolθΔcen:DNA/DNA complex; PolqDcen+ddC+152, 10 min",66.5%
same,"i (%), replicates","PolθΔcen:DNA/DNA complex; PolqDcen+ddC+152, 10 min",33.3% and 25.6% and 32.6%
same,"i+1 (%) normalized to 100%, ave(%)","PolθΔcen:DNA/DNA complex; PolqDcen+ddC+152, 10 min",137.8%
same,"i+1 (%), replicates","PolθΔcen:DNA/DNA complex; PolqDcen+ddC+152, 10 min",25.8% and 38.6% and 27.7%
CN(C(=O)Oc1c(N2CCN(CCO)C2=O)cc(C(F)(F)F)cc1C(F)(F)F)c1ccc(F)cc1 [RTx-161],% Full Extension,Polγ; Pol Gamma,81.33%
same,% Inhibition Compared to Control,Polγ; Pol Gamma,1.34%
same,% Relative Maximum Extension,Polγ; Pol Gamma,98.66%
same,inhibition of primer extension,Polγ; selectivity panel,no inhibition
